Measurements: patent publication US20210115104A1, “AMYLIN ANALOGUES” (Zealand Pharma A/S, priority 2015, published 2021)
Blank lines part the entries; values can stand above or below the compound they belong to. *1 amine or outer side, *2 acyl side, *3 side chain or, on linkers, in order; H or OH if unused. Where a SMILES comes first, the peptide text is derived from it. Bridges are numbered along the chain shown (N, C = ends). [ ]: non-standard residue; d: D form. The star is where a group is joined. C20 diacid = O=C(O)CCCCCCCCCCCCCCCCCCC(=O)*; γGlu = O=C(O)[C@H](CCC(=O)[*:2])N[*:1]; Hyp = O=C(O)[C@@H]1C[C@@H](O)CN1; NMeI = CC[C@H](C)[C@H](NC)C(=O)O; Sar = CNCC(=O)O

What was measured:
[1] = target: T1, human amylin receptor 3 (hAMYR3), hCTR2 co-expressed with hRAMP3 (Homo sapiens, UniProt O60896+P30988); assay: hAMYR3 cAMP assay (AlphaScreen) in COS7 cells; assay type: cell-based; settings: cAMP induction, COS7 cells expressing hAMYR3; Table 1; read-out: hAMYR3 EC50
T1 construct: expressed in transfected cells
T1 sequence (P30988 25-474): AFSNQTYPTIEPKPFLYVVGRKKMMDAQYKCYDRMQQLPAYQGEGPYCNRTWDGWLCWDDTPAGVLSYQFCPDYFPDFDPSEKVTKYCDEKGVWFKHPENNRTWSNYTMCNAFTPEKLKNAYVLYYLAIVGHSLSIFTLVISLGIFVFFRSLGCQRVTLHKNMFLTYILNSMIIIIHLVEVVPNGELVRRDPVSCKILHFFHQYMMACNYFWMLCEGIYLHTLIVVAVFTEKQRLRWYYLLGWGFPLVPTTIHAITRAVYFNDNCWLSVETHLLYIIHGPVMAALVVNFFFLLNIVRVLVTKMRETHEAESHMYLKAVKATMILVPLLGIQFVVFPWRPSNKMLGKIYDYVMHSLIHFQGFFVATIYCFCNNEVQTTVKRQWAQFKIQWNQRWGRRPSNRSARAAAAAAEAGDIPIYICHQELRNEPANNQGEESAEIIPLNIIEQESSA
T1 sequence (O60896 24-148 partner): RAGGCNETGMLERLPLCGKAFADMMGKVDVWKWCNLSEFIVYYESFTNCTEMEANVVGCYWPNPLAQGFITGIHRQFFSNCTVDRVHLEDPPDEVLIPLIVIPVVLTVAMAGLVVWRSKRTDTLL
Source text: The cell line COS7, originating from African Green Monkey kidney fibroblast cells, was used for establishment of the stable cell lines described below. The COS7 cellular background was used due to it being RAMP naïve, and as such it provides the best available system for testing of the monomeric hCTR and different heterodimeric amylin receptor subtypes functionally generated by introduction of the individual RAMPs.
A cell line expressing the human amylin receptor 3 (hAMYR3) was generated in the COS7 cellular background as stable clones. In brief, hCTR2 (GI:4502547) and hRAMP3 (GI:118572586) were amplified by PCR using primers encoding terminal restriction sites for subcloning. The 5′-end primers additionally encoded a near Kozak consensus sequence to ensure efficient translation. The fidelity of the DNA encoding the receptor was confirmed by DNA sequencing. The PCR products encoding the receptor were subcloned into a proprietary tri-cistronic mammalian expression vector with RAMP3, hCTR2 and neomycin (G418) resistance marker. The mammalian expression vector encoding the receptor was transfected into COS7 cells by a standard liposome transfection method. 48 hours post-transfection, cells were seeded for limited dilution cloning and selected with 1 mg/ml G418 in the culture medium. After 3 weeks, surviving colonies of hAMY3R-expressing cells were picked, propagated and tested in the amylin efficacy assay as described in Example 3 below. The functional generation of the amylin receptor phenotype was verified in the efficacy assay by a left-shifted efficacy response to amylin relative to monomeric calcitonin receptor, and one hAMYR3-expressing clone was chosen for compound profiling.
In vitro activity of test peptides at the hCTR2 and hAMYR3 receptors was assessed by measuring the induction of cAMP following stimulation of the receptor using the AlphaScreen® cAMP Assay kit from Perkin-Elmer.
Briefly, COS7 cells expressing hCTR2 (see Example 2, above) were seeded at 30-40,000 cells per well in 96-well microtiter plates coated with 0.01% poly-L-lysine, and grown for 1 day in culture in 100 μl growth medium [DMEM, 10% FCS, Penicillin (100 IU/ml), Streptomycin (100 μg/ml)]. On the day of analysis, growth medium was removed and the cells were washed once with 200 μl Tyrode buffer [Tyrode's Salts (9.6 g/I), 10 mM HEPES, pH 7.4]. Cells were incubated in 100 μl Tyrode buffer containing increasing concentrations of test peptides, 100 µM IBMX and 0.1% casein for 15 min at 37° C. The reaction was stopped by carefully decanting off the compound/buffer medium and replacing it with lysis/detection buffer (80 μl 0.1% w/v BSA, 5 mM HEPES, 0.3% v/v Tween-20 in deionized water). After incubation at room temperature for 10 min., the cAMP content of the resulting cell lysate was estimated according to the AlphaScreen® cAMP Assay manufacturer's instructions. EC50 values were estimated by computer-aided curve fitting using the 4-parameter logistic (4PL) non-linear model.

[2] = target: T2, human calcitonin receptor (hCTR2) (Homo sapiens, UniProt P30988); assay: hCTR2 cAMP assay (AlphaScreen) in COS7 cells; assay type: cell-based; settings: cAMP induction, COS7 cells expressing hCTR2; Table 1; read-out: hCTR2 EC50
T2 construct: expressed in transfected cells
T2 sequence (P30988 25-474): T1 sequence (P30988 25-474)
In short: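 Stable hCTR2 clone in RAMP-naïve COS7 cells stimulated 15 min at 37 °C with increasing peptide concentrations in Tyrode buffer pH 7.4 containing IBMX and 0.1% casein. cAMP in lysates measured by AlphaScreen; EC50 from 4-parameter logistic fit.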

[3] = Assessment of physical stability (Thioflavin T fibrillation); assay type: physicochemical; set-up: key: FND = fibrillation not detected; FD = fibrillation detected; settings: 1 mg/ml, 40° C., ThT
In short: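 1 mg/ml peptide with 40 μM ThT in 50 mM phosphate pH 7.0, 50 mM histidine pH 7.0 or 50 mM acetate pH 4.0, in triplicate. Fluorescence read every 10 min after 300 s agitation over 96 h at 40 °C. Lag-time (h) is the intersection of linear fits to stable and growth phases.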

[4] = Assessment of chemical stability (RP-HPLC normalized purity); assay type: physicochemical; settings: 7 days, 40° C., Table 1
In short: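 Peptides at 0.2 mg/ml in water adjusted to pH 4, 6, 7.5 or 9, incubated at 40° C for 7 days. Main-peak area-% by RP-HPLC (C8 ammonium formate or C18 TFA gradient, UV 220 nm), normalized to T=0 as 100.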

EC50 [1]: 0.13 nM
SMILES: CC[C@H](C)[C@@H](C(=O)N[C@@H](CC(C)C)C(=O)N[C@@H](CO)C(=O)N[C@@H](CO)C(=O)N[C@H](C(=O)N[C@@H](CC(=O)O)C(=O)N[C@H](C(=O)NCC(=O)N[C@@H](CO)C(=O)N[C@@H](CC(=O)O)C(=O)N[C@H](C(=O)N1CCC[C@H]1C(N)=O)[C@@H](C)O)C(C)C)[C@@H](C)O)N(C)C(=O)[C@H](C)NC(=O)CN(C)C(=O)[C@H](Cc1ccccc1)NC(=O)[C@H](CO)NC(=O)[C@H](CO)NC(=O)[C@H](CCCNC(=N)N)NC(=O)[C@@H](NC(=O)[C@H](CC(C)C)NC(=O)[C@H](Cc1ccccc1)NC(=O)[C@H](Cc1c[nH]cn1)NC(=O)[C@H](C)NC(=O)[C@H](CC(C)C)NC(=O)[C@H](CCCNC(=N)N)NC(=O)[C@H](CC(=O)O)NC(=O)[C@@H](NC(=O)[C@H](C)NC(=O)[C@@H]1CSSC[C@H](NC(=O)[C@H](CCCNC(=N)N)NC(=O)CC[C@H](NC(=O)CCCCCCCCCCCCCCCCCCC(=O)O)C(=O)O)C(=O)N2CCC[C@H]2C(=O)N[C@@H]([C@@H](C)O)C(=O)N[C@@H](C)C(=O)N[C@@H]([C@@H](C)O)C(=O)N1)[C@@H](C)O)C(C)C [Compound 23, [19CD]-isoGlu-R-C( )-PTAT-C( )-ATDRLAHFLVRSSF-Gly(Me)-A-Ile(Me)-LSSTDVGSDTP-NH2] ({C20 diacid-γGlu}-RCPTATCATDRLAHFLVRSSF[Sar]A[NMeI]LSSTDVGSDTP-NH2; disulfide 2-7)

EC50 [1]: 0.094 nM
SMILES: CC[C@H](C)[C@@H](C(=O)N[C@@H](CC(C)C)C(=O)N[C@@H](CO)C(=O)N[C@@H](CO)C(=O)N[C@H](C(=O)N[C@@H](CC(=O)O)C(=O)N[C@H](C(=O)NCC(=O)N[C@@H](CO)C(=O)N[C@@H](CC(N)=O)C(=O)N[C@H](C(=O)N1CCC[C@H]1C(N)=O)[C@@H](C)O)C(C)C)[C@@H](C)O)N(C)C(=O)[C@H](C)NC(=O)CN(C)C(=O)[C@H](Cc1ccccc1)NC(=O)[C@H](CO)NC(=O)[C@H](CO)NC(=O)[C@H](CCCNC(=N)N)NC(=O)[C@H](Cc1c[nH]cn1)NC(=O)[C@H](CC(C)C)NC(=O)[C@H](Cc1ccccc1)NC(=O)[C@H](Cc1c[nH]cn1)NC(=O)[C@H](C)NC(=O)[C@H](CC(C)C)NC(=O)[C@H](CCCNC(=N)N)NC(=O)[C@H](CC(=O)O)NC(=O)[C@@H](NC(=O)[C@H](C)NC(=O)[C@@H]1CSSC[C@H](NC(=O)[C@H](CCCNC(=N)N)NC(=O)CC[C@H](NC(=O)CCCCCCCCCCCCCCCCCCC(=O)O)C(=O)O)C(=O)N2CCC[C@H]2C(=O)N[C@@H]([C@@H](C)O)C(=O)N[C@@H](C)C(=O)N[C@@H]([C@@H](C)O)C(=O)N1)[C@@H](C)O [Compound 25, [19CD]-isoGlu-R-C( )-PTAT-C( )-ATDRLAHFLHRSSF-Gly(Me)-A-Ile(Me)-LSSTDVGSNTP-NH2] ({C20 diacid-γGlu}-RCPTATCATDRLAHFLHRSSF[Sar]A[NMeI]LSSTDVGSNTP-NH2; disulfide 2-7)

EC50 [1]: 0.12 nM
SMILES: CC[C@H](C)[C@@H](C(=O)N[C@@H](CC(C)C)C(=O)N[C@@H](CO)C(=O)N[C@@H](CO)C(=O)N[C@H](C(=O)N[C@@H](CCC(=O)O)C(=O)N[C@H](C(=O)NCC(=O)N[C@@H](CO)C(=O)N[C@@H](CCC(=O)O)C(=O)N[C@H](C(=O)N1CCC[C@H]1C(N)=O)[C@@H](C)O)C(C)C)[C@@H](C)O)N(C)C(=O)[C@H](C)NC(=O)CN(C)C(=O)[C@H](Cc1ccccc1)NC(=O)[C@H](CO)NC(=O)[C@H](CO)NC(=O)[C@H](CCCNC(=N)N)NC(=O)[C@H](Cc1c[nH]cn1)NC(=O)[C@H](CC(C)C)NC(=O)[C@H](Cc1ccccc1)NC(=O)[C@H](Cc1c[nH]cn1)NC(=O)[C@H](C)NC(=O)[C@H](CC(C)C)NC(=O)[C@H](CCCNC(=N)N)NC(=O)[C@H](CCC(=O)O)NC(=O)[C@@H](NC(=O)[C@H](C)NC(=O)[C@@H]1CSSC[C@H](NC(=O)[C@H](CCCNC(=N)N)NC(=O)CC[C@H](NC(=O)CCCCCCCCCCCCCCCCCCC(=O)O)C(=O)O)C(=O)NCC(=O)N[C@@H]([C@@H](C)O)C(=O)N[C@@H](C)C(=O)N[C@@H]([C@@H](C)O)C(=O)N1)[C@@H](C)O [Compound 26, [19CD]-isoGlu-R-C( )-GTAT-C( )-ATERLAHFLHRSSF-Gly(Me)-A-Ile(Me)-LSSTEVGSETP-NH2] ({C20 diacid-γGlu}-RCGTATCATERLAHFLHRSSF[Sar]A[NMeI]LSSTEVGSETP-NH2; disulfide 2-7)

EC50 [2]: 0.2 nM | Fibrillation pH 4.0 (Ac) ([3]; 50 mM acetate buffer pH 4.0, 96 hours): FND | Fibrillation pH 7.0 (His) ([3]; 50 mM histidine buffer pH 7.0, 96 hours): FND | Fibrillation pH 7.0 (Phos.) ([3]; 50 mM phosphate buffer pH 7.0, 96 hours): FND | Normalized purity after 7 days, 40° C., pH 4 ([4]; pH 4, 0.2 mg/ml): A (A = >90%) | Normalized purity after 7 days, 40° C., pH 6 ([4]; pH 6, 0.2 mg/ml): A (A = >90%) | Normalized purity after 7 days, 40° C., pH 7.5 ([4]; pH 7.5, 0.2 mg/ml): A (A = >90%) | Normalized purity after 7 days, 40° C., pH 9 ([4]; pH 9, 0.2 mg/ml): A (A = >90%)
SMILES: CC[C@H](C)[C@@H](C(=O)N[C@@H](CC(C)C)C(=O)N[C@@H](CO)C(=O)N[C@@H](CO)C(=O)N[C@H](C(=O)N[C@@H](CCC(=O)O)C(=O)N[C@H](C(=O)NCC(=O)N[C@@H](CO)C(=O)NCC(=O)N[C@H](C(=O)N1C[C@H](O)C[C@H]1C(N)=O)[C@@H](C)O)C(C)C)[C@@H](C)O)N(C)C(=O)[C@H](C)NC(=O)CN(C)C(=O)[C@H](Cc1ccccc1)NC(=O)[C@H](CO)NC(=O)[C@H](CO)NC(=O)[C@H](CCCNC(=N)N)NC(=O)[C@H](CCC(N)=O)NC(=O)[C@H](CC(C)C)NC(=O)[C@H](Cc1ccccc1)NC(=O)[C@H](Cc1c[nH]cn1)NC(=O)[C@H](C)NC(=O)[C@H](CC(C)C)NC(=O)[C@H](CCCNC(=N)N)NC(=O)[C@H](CCC(=O)O)NC(=O)[C@@H](NC(=O)[C@H](C)NC(=O)[C@@H]1CSSC[C@H](NC(=O)[C@H](CCCNC(=N)N)NC(=O)CC[C@H](NC(=O)CCCCCCCCCCCCCCCCCCC(=O)O)C(=O)O)C(=O)N[C@@H](CCC(N)=O)C(=O)N[C@@H]([C@@H](C)O)C(=O)N[C@@H](C)C(=O)N[C@@H]([C@@H](C)O)C(=O)N1)[C@@H](C)O [Compound 90, [19CD]-isoGlu-R-C( )-QTAT-C( )-ATERLAHFLQRSSF-Gly(Me)-A-Ile(Me)-LSSTEVGSGT-Hyp-NH2] ({C20 diacid-γGlu}-RCQTATCATERLAHFLQRSSF[Sar]A[NMeI]LSSTEVGSGT[Hyp]-NH2; disulfide 2-7)
